The subject of this experiment is E. coli BW25113. In kind it is cell-based, Escherichia coli. Here is the method:
Bacterial growth conditions. LB or Mueller Hinton II cation-adjusted broth (MHB II, BBL 212322) was prepared according to manufacturer's instructions and supplemented with arabinose at 0.02% for overnight growth or at indicated concentrations in the description of the figures. Bacterial cultures were grown at 37° C. When appropriate, media was supplemented with kanamycin (50 μg/mL), carbenicillin (50 μg/mL), chloramphenicol (12.5 or 25 μg/mL), hygromycin (200 μg/mL), and/or gentamicin (10 μg/mL).
Peptide sensitivity and MIC assays. Lyophilized peptides (Smartox Biotechnology, CPC Scientific. ABclonal) were solubilized to 10 mM in Tris buffer, pH 8, prior to making a 2-fold dilution series in MHBII cation adjusted broth with highest final assay concentration of 400-800 μM. Bacteria were grown to log phase and added to final OD600˜0.001. The final EDTA concentration was 0.5 mM for E. coli strains and 0.125 mM for USA300. The final volume of 10 μL/well in a 384 well black, clear bottom plate (Corning) was spun <1 min at <250×g and then incubated at 37° C. After 4 h, an equal volume (10 μL) of BacTiter-Glo™ (Promega) was added to each well and luminescence was read after 5 min on an EnVision plate reader (PerkinElmer). To measure the minimal inhibitory concentrations (MICs), bacteria from fresh overnight plates or log phase cultures were diluted with or without EDTA and peptides as described above to final OD600˜0.0002. Plates were incubated at 37° C. for 20 h before measuring OD600 with an EnVision plate reader.

≈ marks a conversion by molar mass, not a printed value. Read-outs that look alike come from different tables or passages of the source. Square brackets hold non-standard residues; d marks the D form. Peptide text beside a SMILES is read from it. Bip = N[C@@H](Cc1ccc(-c2ccccc2)cc1)C(=O)O; NMeF = CN[C@@H](Cc1ccccc1)C(=O)O; hPhe = N[C@@H](CCc1ccccc1)C(=O)O; NMeM = CN[C@@H](CCSC)C(=O)O; NMeA = CN[C@@H](C)C(=O)O; Dap = NC[C@H](N)C(=O)O

In the case of `CSCC[C@H](NC(=O)[C@H](CN)NC(=O)[C@H](CCSC)N(C)C(=O)[C@@H]1CCCN1C(=O)[C@H](Cc1ccc(O)cc1)NC(C)=O)C(=O)N[C@@H](CCCNC(=N)N)C(=O)N[C@@H](CCCNC(=N)N)C(=O)N[C@@H](Cc1ccccc1)C(=O)N[C@@H](CC(C)C)C(=O)N[C@@H](CCC(=O)O)C(=O)N[C@@H](CCCCN)C(=O)N[C@@H](Cc1c[nH]c2ccccc12)C(=O)NCC(=O)N[C@@H](CC(C)C)C(=O)N[C@@H](CC(C)C)C(=O)N[C@@H](CCCNC(=N)N)C(N)=O` [compound 96] (Ac-YP[NMeM][Dap]MRRFLEKWGLLR-NH2), where the note is “Table 8”, the “MIC E. coli BW25113” value was found to be 50.0 µM (≈ 107 µg/mL).
With `CC(=O)N[C@@H](CCCNC(=N)N)C(=O)N1CCC[C@H]1C(=O)N[C@@H](CCc1ccccc1)C(=O)N[C@H](C(=O)N[C@@H](C)C(=O)N[C@@H](CCCNC(=N)N)C(=O)N[C@@H](CCCNC(=N)N)C(=O)N[C@@H](Cc1c[nH]c2ccccc12)C(=O)N[C@@H](CC(C)C)C(=O)N[C@@H](C)C(=O)N[C@@H](CCCCN)C(=O)N[C@@H](CCCNC(=N)N)C(=O)NCC(=O)N[C@@H](CC(C)C)C(N)=O)[C@@H](C)O` [compound 222] (Ac-RP[hPhe]TARRWLAKRGL-NH2), the “MIC E. coli BW25113” value (BW25113) turned out to be 12.5 µM (≈ 22.3 µg/mL).
`CSCC[C@H](NC(=O)[C@@H]1CCCN1C(=O)[C@H](Cc1ccc(O)cc1)NC(C)=O)C(=O)N[C@@H](CCCNC(=N)N)C(=O)N[C@@H](Cc1ccccc1)C(=O)N[C@@H](CN)C(=O)N[C@@H](CCCNC(=N)N)C(=O)N[C@@H](Cc1ccccc1)C(=O)N[C@@H](CC(C)C)C(=O)N[C@@H](CCC(=O)O)C(=O)N[C@@H](CCCCN)C(=O)N[C@@H](Cc1c[nH]c2ccccc12)C(=O)NCC(=O)N[C@@H](CC(C)C)C(=O)N[C@@H](CC(C)C)C(=O)N[C@@H](CCCNC(=N)N)C(N)=O` [compound 105] (Ac-YPMRF[Dap]RFLEKWGLLR-NH2): the “MIC E. coli BW25113” value (BW25113) was determined as 50 µM (≈ 107 µg/mL).
In the case of Ac-YPMTARRFLEKHGGL-NH2 [compound 101], for the setting “Table 8”, the “MIC E. coli BW25113” value came out at 50.0 µM.
The same measure, in the same setting: as for `CSCC[C@H](NC(=O)[C@H](CN)NC(=O)[C@H](CCSC)NC(=O)[C@@H]1CCCN1C(=O)[C@H](CCCNC(=N)N)NC(C)=O)C(=O)N[C@@H](CCCNC(=N)N)C(=O)N[C@@H](CCCNC(=N)N)C(=O)N[C@@H](Cc1ccc(-c2ccccc2)cc1)C(=O)N[C@@H](CC(C)C)C(=O)N[C@@H](CCC(=O)O)C(=O)N[C@@H](CCCCN)C(=O)N[C@@H](CCCNC(=N)N)C(=O)NCC(=O)N[C@@H](CC(C)C)C(N)=O` [compound 218] (Ac-RPM[Dap]MRR[Bip]LEKRGL-NH2), the figure is 200.0 µM (≈ 379 µg/mL).
Consider `CSCC[C@H](NC(=O)[C@H](CN)NC(=O)[C@H](Cc1ccc(O)cc1)NC(C)=O)C(=O)N1CCC[C@H]1C(=O)N[C@@H](Cc1ccccc1)C(=O)N[C@@H](CCCNC(=N)N)C(=O)N[C@@H](CCCNC(=N)N)C(=O)N[C@@H](Cc1ccccc1)C(=O)N[C@@H](CC(C)C)C(=O)N[C@@H](CCC(=O)O)C(=O)N[C@@H](CCCCN)C(=O)N[C@@H](Cc1c[nH]c2ccccc12)C(=O)NCC(=O)N[C@@H](CC(C)C)C(=O)N[C@@H](CC(C)C)C(=O)N[C@@H](CCCNC(=N)N)C(N)=O` [compound 102] (Ac-Y[Dap]MPFRRFLEKWGLLR-NH2), for which the “MIC E. coli BW25113” value (BW25113) is 25.0 µM (≈ 53.5 µg/mL).
In the case of `CC(=O)N[C@@H](Cc1ccc(O)cc1)C(=O)N1CCC[C@H]1C(=O)N(C)[C@@H](Cc1ccccc1)C(=O)N[C@H](C(=O)N(C)[C@@H](C)C(=O)N[C@@H](CCCNC(=N)N)C(=O)N[C@@H](CCCNC(=N)N)C(=O)N[C@@H](Cc1ccccc1)C(=O)N[C@@H](CC(C)C)C(=O)N[C@@H](CCC(=O)O)C(=O)N[C@@H](CCCCN)C(=O)N[C@@H](Cc1c[nH]c2ccccc12)C(=O)NCC(=O)N[C@@H](CC(C)C)C(=O)N[C@@H](CC(C)C)C(=O)N[C@@H](CCCNC(=N)N)C(N)=O)[C@@H](C)O` [compound 99] (Ac-YP[NMeF]T[NMeA]RRFLEKWGLLR-NH2), where the note is “Table 8”, the “MIC E. coli BW25113” value was determined as 200.0 µM (≈ 425 µg/mL).

Source of the values: patent publication US20220135622A1, “ANTIBACTERIAL PEPTIDES AND METHODS OF USE” (priority 2019, published 2022).
